Experimental data: patent US20230043204A1, “DIHYDROERGOTAMINE MESYLATE FORMULATIONS AND PRE-FILLED INJECTORS FOR THERAPEUTIC DELIVERY OF THE SAME” (Scienture, Inc., priority 2019, published 2023)
Counter-ions that a name gives are not always drawn.

Key:
Assay type in all cases: physicochemical
[1] = Solubility of DHE in solvents (observation); conditions: in DMSO, benzyl alcohol, ethanol, propylene glycol, and captisol
Source text: Based on this discovery and the solubility and stability data generated above for various solvents, preservatives, and antioxidants, additional stable formulations are included as non-limiting examples in Table 15. Prophetic formulations are included as non-limiting examples in Tables 16 and 17.

[2] = HPLC DHE and specific impurity analysis of formulations O and P on storage; conditions: 0 Time
Method: (§1) The examples herein describe analysis of formulations comprising DHE, and analysis of impurity content. Unless specifically indicated otherwise, analysis was carried out by HPLC according to the parameters in Tables 2-4.
(§2) Mobile Phase A in Tables 3 and 4 contains 2.75 g of sodium 1-heptane sulfonate in 1000 mL Purified Water, pH adjusted to 2.0 with o-phosphoric acid. Mobile Phase B in Tables 3 and 4 contains 200 mL of Mobile Phase A mixed with 800 mL of acetonitrile.
The formulation of Table 11 (“P”) was prepared for use in canine studies. An additional formulation was prepared (“O”), replacing DMSO of formula P with an equal amount of propylene glycol.

[3] = HPLC analysis of formulation J after one day of storage at room temperature; conditions: API sample as comparison
Method: as §1, §2
After one day of storage at room temperature, formulation J was analyzed for DHE and impurities, as shown in the last two rows of Table 8. Testing for specific impurities relative to a sample of API (DHE mesylate) yielded the results of Table 9.

[4] = 5 mg/mL DHE mesylate stability in solvents suitable for parenteral injection (HPLC); design: Total Impurities Initial: unit not given here; conditions: for DHE (mg/mL) After 1 Week / Total Impurities After 1 Week: 1 week 40° C. sealed vial
Method: as §1, §2
Solvents that are suitable for parenteral injections were selected, and solutions of 5 mg/mL DHE mesylate in each (Table 5) were stored at 40° C. in sealed vials. Following 1 week of storage, the remaining amount of DHE was determined by HPLC, indicating solvents compatible with stable DHE storage.

[5] = Stability of formulations L, M, N at accelerated conditions (40° C., sealed vials; HPLC); conditions: Initial
Method: as §1, §2
Additional formulations “L”, “M”, and “N” were prepared according to Table 9 and analyzed for the concentration of DHE and impurities following one day in sealed vials at 40° C. Specific impurities were analyzed after storage in sealed vials after one and two weeks at 40° C. (Table 10).

SMILES: CN1C[C@H](C(=O)N[C@]2(C)O[C@@]3(O)[C@@H]4CCCN4C(=O)[C@H](Cc4ccccc4)N3C2=O)C[C@@H]2c3cccc4[nH]cc(c34)C[C@H]21 [DHE, (5′α)-9,10-dihydro-12′-hydroxy-2′-methyl-5′-(phenylmethyl)-ergotaman-3′,6′,18-trione]
- solubility (observation in words) [1]: highly soluble

SMILES: CN1C[C@H](C(=O)N[C@]2(C)O[C@@]3(O)[C@@H]4CCCN4C(=O)[C@H](Cc4ccccc4)N3C2=O)C[C@@H]2c3cccc4[nH]cc(c34)C[C@H]21 [DHE Mesylate, ergotaman-3′,6′,19-trione, 9,10-dihydro-12′-hydroxy-2′-methyl-5′-(phenylmethyl)-, (5′α)-, monomethane-sulfonate]
- % Total Impurities [2]: 0.2%
- impurity peak, RRT 0.87 [2]: 0
- impurity peak, RRT 0.92 [2]: 0.1
- impurity peak, RRT 1.21 (Imp-B) [2]: 0.1
- Total Impurities following 1 day of storage [3]: 0.19
- impurity peak, RRT 0.75 [3]: 0.03
- impurity peak, RRT 0.84 (Imp-C) [3]: 0.02
- impurity peak, RRT 0.9 [3]: 0.03
- impurity peak, RRT 1.24 [3]: 0.11
- DHE (mg/mL) Initial ([4]; 5 mg/mL solution in 15% solution of Kollidon 30): 1.7 mg/mL
- DHE (mg/mL) Initial ([4]; 5 mg/mL solution in Alcohol, USP): 5 mg/mL
- DHE (mg/mL) Initial ([4]; 5 mg/mL solution in Benzyl Alcohol): 4.9 mg/mL
- DHE (mg/mL) Initial ([4]; 5 mg/mL solution in DMSO): 5.1 mg/mL
- DHE (mg/mL) Initial ([4]; 5 mg/mL solution in Glycerin, USP): 1.3 mg/mL
- DHE (mg/mL) Initial ([4]; 5 mg/mL solution in Glycerin:Ethanol (1:1)): 5.1 mg/mL
- DHE (mg/mL) Initial ([4]; 5 mg/mL solution in N,N Dimethyl Acetamide): 5.1 mg/mL
- DHE (mg/mL) Initial ([4]; 5 mg/mL solution in N-methyl pyrrolidone): 5.1 mg/mL
- DHE (mg/mL) Initial ([4]; 5 mg/mL solution in PEG 200): 4.3 mg/mL
- DHE (mg/mL) Initial ([4]; 5 mg/mL solution in Propylene Glycol): 4.8 mg/mL
- DHE (mg/mL) Initial ([4]; 5 mg/mL solution in Purified water): 4.1 mg/mL
- DHE (mg/mL) After 1 Week ([4]; 15% solution of Kollidon 30): 3.7 mg/mL
- Total Impurities After 1 Week ([4]; 15% solution of Kollidon 30): 9.95
- Total Impurities Initial ([4]; 15% solution of Kollidon 30): 0.24
- DHE (mg/mL) After 1 Week ([4]; Alcohol, USP): 5 mg/mL
- Total Impurities After 1 Week ([4]; Alcohol, USP): 0.38
- Total Impurities Initial ([4]; Alcohol, USP): 0.24
- DHE (mg/mL) After 1 Week ([4]; Benzyl Alcohol): 4.2 mg/mL
- Total Impurities After 1 Week ([4]; Benzyl Alcohol): 2.51
- Total Impurities Initial ([4]; Benzyl Alcohol): 9.58
- DHE (mg/mL) After 1 Week ([4]; DMSO): 5 mg/mL
- Total Impurities After 1 Week ([4]; DMSO): 0.47
- Total Impurities Initial ([4]; DMSO): 0.26
- DHE (mg/mL) After 1 Week ([4]; Glycerin, USP): 6 mg/mL
- Total Impurities After 1 Week ([4]; Glycerin, USP): 0.33
- Total Impurities Initial ([4]; Glycerin, USP): 0.21
- DHE (mg/mL) After 1 Week ([4]; Glycerin:Ethanol (1:1)): 5.1 mg/mL
- Total Impurities After 1 Week ([4]; Glycerin:Ethanol (1:1)): 0.4
- Total Impurities Initial ([4]; Glycerin:Ethanol (1:1)): 0.28
- DHE (mg/mL) After 1 Week ([4]; N,N Dimethyl Acetamide): 5.4 mg/mL
- Total Impurities After 1 Week ([4]; N,N Dimethyl Acetamide): 0.8
- Total Impurities Initial ([4]; N,N Dimethyl Acetamide): 0.13
- DHE (mg/mL) After 1 Week ([4]; N-methyl pyrrolidone): 4.8 mg/mL
- Total Impurities After 1 Week ([4]; N-methyl pyrrolidone): 1.14
- Total Impurities Initial ([4]; N-methyl pyrrolidone): 0.33
- DHE (mg/mL) After 1 Week ([4]; PEG 200): 4.9 mg/mL
- Total Impurities After 1 Week ([4]; PEG 200): 1.36
- Total Impurities Initial ([4]; PEG 200): 0.25
- DHE (mg/mL) After 1 Week ([4]; Propylene Glycol): 5.1 mg/mL
- Total Impurities After 1 Week ([4]; Propylene Glycol): 0.42
- Total Impurities Initial ([4]; Propylene Glycol): 0.26
- DHE (mg/mL) After 1 Week ([4]; Purified water): 4.4 mg/mL
- Total Impurities After 1 Week ([4]; Purified water): 3.5
- Total Impurities Initial ([4]; Purified water): 0.24
- % Total Impurities [5]: 0.2%
- impurity peak, RRT 0.87 [5]: 0
- impurity peak, RRT 0.92 [5]: 0.1
- impurity peak, RRT 1.22 (Impurity B) [5]: 0.1
